Measurements published in ChEMBL document CHEMBL4507299, “Data for DCP probe PF-04554878” (2021).

Assays:
[1] = target: T1, Serine/threonine-protein kinase 3 (Homo sapiens) (UniProt Q13188); test: MST2 Invitrogen kinase activity assay; details: Compound concentration 1.0 uM
T1 sequence (whole entry): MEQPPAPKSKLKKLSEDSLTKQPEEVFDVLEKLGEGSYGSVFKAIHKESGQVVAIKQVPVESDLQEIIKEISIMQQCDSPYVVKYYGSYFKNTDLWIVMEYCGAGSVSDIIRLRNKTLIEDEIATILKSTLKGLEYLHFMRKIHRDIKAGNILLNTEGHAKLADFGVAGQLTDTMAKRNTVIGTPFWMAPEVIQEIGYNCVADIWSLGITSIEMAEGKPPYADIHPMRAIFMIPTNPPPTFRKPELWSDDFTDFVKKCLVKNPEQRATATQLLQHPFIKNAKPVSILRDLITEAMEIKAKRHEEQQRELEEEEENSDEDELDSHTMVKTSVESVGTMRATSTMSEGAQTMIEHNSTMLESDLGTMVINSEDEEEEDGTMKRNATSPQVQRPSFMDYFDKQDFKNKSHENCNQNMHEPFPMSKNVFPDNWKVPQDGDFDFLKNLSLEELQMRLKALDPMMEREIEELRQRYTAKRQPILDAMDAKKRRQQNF

[2] = target: Tyrosine-protein kinase JAK3 (Homo sapiens, UniProt P52333); test: JAK3 Invitrogen kinase activity assay
[3] = target: Kappa-type opioid receptor (Homo sapiens) (UniProt P41145); details: Compound concentration 10.0 uM
[4] = target: Mitogen-activated protein kinase 1 (Homo sapiens) (UniProt P28482); test: MAPK1/ERK2 Invitrogen kinase activity assay; details: Compound concentration 1.0 uM
[5] = target: T2, Aurora kinase A (Homo sapiens) (UniProt O14965); test: (§1) Aurora-A Invitrogen kinase activity assay; details: Compound concentration 1.0 uM
T2 sequence (whole entry): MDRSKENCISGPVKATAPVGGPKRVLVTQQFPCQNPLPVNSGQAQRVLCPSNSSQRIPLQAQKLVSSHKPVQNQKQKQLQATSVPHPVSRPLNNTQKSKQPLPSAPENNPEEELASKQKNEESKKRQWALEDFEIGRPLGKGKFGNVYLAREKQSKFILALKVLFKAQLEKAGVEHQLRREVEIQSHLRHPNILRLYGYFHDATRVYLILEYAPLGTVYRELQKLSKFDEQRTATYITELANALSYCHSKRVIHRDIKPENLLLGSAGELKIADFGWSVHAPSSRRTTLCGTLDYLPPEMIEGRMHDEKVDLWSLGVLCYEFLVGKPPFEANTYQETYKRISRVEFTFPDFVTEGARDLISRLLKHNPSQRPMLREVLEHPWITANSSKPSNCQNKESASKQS

[6] = target: Aurora kinase A (Homo sapiens, UniProt O14965); test: as §1
[7] = target: T3, Inhibitor of nuclear factor kappa-B kinase subunit beta (Homo sapiens) (UniProt O14920); test: IKKβ Invitrogen kinase activity assay; details: Compound concentration 1.0 uM
T3 sequence (whole entry): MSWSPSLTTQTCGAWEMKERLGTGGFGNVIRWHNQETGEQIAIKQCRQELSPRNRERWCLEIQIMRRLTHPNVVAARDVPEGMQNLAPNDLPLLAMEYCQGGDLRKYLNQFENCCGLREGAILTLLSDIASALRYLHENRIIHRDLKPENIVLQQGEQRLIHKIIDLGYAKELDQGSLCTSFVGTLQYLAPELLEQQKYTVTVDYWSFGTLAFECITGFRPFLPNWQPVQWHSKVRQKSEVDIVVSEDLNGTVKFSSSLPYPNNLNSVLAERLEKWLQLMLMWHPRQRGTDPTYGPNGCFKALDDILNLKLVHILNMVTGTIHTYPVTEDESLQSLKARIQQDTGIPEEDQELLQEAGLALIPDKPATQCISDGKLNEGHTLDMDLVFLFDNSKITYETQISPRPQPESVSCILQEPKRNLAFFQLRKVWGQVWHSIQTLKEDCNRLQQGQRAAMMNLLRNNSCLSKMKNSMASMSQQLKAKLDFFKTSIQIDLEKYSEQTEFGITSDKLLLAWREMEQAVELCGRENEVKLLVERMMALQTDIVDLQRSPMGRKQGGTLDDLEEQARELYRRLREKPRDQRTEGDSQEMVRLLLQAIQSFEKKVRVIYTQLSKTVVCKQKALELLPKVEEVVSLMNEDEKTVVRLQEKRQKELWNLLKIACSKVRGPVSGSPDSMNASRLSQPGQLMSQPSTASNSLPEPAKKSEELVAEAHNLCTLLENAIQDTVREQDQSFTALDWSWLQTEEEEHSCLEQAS

[8] = target: Serine/threonine-protein kinase Chk2 (Homo sapiens) (UniProt O96017); test: CHK2 Invitrogen kinase activity assay; details: Compound concentration 1.0 uM
[9] = target: Myosin light chain kinase 2, skeletal/cardiac muscle (Homo sapiens) (UniProt Q9H1R3); test: MYLK2 Invitrogen kinase activity assay; details: Compound concentration 1.0 uM
[10] = target: T4, Inhibitor of nuclear factor kappa-B kinase subunit epsilon (Homo sapiens) (UniProt Q14164); test: IKKi Invitrogen kinase activity assay; details: Compound concentration 1.0 uM
T4 sequence (whole entry): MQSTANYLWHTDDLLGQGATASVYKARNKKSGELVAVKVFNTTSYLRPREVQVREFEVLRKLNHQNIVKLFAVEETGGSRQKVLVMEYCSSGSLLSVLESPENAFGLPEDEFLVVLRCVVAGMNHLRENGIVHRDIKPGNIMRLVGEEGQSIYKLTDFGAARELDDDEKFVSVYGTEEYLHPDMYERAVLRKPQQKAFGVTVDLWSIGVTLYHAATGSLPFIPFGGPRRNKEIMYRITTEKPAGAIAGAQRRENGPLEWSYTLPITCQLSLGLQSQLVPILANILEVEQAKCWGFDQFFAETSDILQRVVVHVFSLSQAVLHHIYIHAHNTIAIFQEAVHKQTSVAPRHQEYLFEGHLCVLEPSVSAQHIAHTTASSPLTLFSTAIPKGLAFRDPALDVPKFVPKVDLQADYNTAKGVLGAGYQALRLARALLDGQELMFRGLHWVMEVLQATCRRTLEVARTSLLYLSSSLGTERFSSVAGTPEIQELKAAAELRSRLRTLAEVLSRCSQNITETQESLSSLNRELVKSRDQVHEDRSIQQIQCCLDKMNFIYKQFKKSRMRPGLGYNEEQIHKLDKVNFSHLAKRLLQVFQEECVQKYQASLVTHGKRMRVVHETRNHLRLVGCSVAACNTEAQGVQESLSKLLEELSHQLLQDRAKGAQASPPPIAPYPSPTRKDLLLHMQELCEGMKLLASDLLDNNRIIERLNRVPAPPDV

[11] = target: Mitogen-activated protein kinase kinase kinase kinase 4 (Homo sapiens) (UniProt O95819); test: MAP4K4 Invitrogen kinase activity assay; details: Compound concentration 1.0 uM
[12] = target: Ephrin type-A receptor 2 (Homo sapiens) (UniProt P29317); test: ECK Invitrogen kinase activity assay; details: Compound concentration 1.0 uM
[13] = GPCRScan assay: inhibition of GABA/PBR; parameters: species or system Rattus norvegicus; radioligand conc. used [nm] 0.3 – 2.0, parental cells brain tissue
[14] = target: 5-hydroxytryptamine receptor 1D (Homo sapiens) (UniProt P28221); details: Compound concentration 10.0 uM
Sequence of 5-hydroxytryptamine receptor 1D (Homo sapiens) (P28221 whole entry): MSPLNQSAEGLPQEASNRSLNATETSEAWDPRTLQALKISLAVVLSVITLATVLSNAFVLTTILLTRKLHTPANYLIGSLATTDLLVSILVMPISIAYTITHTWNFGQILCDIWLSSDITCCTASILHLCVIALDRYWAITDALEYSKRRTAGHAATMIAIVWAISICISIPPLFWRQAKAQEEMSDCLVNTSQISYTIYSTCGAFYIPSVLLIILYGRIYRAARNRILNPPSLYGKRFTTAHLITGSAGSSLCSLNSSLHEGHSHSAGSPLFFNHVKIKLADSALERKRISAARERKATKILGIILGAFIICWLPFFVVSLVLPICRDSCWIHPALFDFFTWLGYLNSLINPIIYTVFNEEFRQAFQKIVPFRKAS

Sequence of Tyrosine-protein kinase JAK3 (P52333 whole entry): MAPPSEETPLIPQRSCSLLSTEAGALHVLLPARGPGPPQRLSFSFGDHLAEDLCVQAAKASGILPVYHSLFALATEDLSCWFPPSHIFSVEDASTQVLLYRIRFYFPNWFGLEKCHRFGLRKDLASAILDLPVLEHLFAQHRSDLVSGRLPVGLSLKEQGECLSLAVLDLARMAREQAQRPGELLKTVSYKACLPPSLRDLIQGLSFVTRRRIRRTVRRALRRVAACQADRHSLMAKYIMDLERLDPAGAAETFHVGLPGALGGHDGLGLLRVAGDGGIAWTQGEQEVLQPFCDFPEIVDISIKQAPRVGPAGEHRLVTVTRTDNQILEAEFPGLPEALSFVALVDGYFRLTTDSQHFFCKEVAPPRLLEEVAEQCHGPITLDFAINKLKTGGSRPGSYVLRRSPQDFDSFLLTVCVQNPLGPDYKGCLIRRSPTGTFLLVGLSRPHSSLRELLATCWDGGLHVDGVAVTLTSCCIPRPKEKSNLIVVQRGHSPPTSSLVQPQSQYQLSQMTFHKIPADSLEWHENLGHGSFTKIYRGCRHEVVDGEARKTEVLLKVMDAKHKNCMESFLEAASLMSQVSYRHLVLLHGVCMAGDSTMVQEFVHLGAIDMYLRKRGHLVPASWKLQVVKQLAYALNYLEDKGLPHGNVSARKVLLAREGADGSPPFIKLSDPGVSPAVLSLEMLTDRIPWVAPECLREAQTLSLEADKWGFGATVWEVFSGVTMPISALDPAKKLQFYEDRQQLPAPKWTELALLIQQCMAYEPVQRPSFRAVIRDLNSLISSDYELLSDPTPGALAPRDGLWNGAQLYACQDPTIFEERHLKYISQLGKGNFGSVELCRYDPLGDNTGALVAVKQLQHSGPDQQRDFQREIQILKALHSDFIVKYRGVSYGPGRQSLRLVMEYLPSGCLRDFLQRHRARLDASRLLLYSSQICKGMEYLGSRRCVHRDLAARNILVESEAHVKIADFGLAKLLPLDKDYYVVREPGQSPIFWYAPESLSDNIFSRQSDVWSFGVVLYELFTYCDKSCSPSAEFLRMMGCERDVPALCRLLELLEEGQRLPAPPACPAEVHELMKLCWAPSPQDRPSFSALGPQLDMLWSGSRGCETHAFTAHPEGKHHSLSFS
Sequence of Kappa-type opioid receptor (Homo sapiens) (P41145 whole entry): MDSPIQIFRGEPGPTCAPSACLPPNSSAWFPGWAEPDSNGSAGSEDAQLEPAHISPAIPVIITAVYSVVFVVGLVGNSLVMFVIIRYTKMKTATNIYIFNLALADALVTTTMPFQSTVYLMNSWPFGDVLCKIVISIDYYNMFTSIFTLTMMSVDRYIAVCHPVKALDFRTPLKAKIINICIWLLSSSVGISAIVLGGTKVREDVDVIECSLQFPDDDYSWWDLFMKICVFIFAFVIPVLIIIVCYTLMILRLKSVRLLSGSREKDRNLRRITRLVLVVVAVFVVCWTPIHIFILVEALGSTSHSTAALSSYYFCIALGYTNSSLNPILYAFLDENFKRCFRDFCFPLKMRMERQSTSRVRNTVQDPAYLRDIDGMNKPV
Sequence of Mitogen-activated protein kinase kinase kinase kinase 4 (Homo sapiens) (O95819 2-1239 limits assumed): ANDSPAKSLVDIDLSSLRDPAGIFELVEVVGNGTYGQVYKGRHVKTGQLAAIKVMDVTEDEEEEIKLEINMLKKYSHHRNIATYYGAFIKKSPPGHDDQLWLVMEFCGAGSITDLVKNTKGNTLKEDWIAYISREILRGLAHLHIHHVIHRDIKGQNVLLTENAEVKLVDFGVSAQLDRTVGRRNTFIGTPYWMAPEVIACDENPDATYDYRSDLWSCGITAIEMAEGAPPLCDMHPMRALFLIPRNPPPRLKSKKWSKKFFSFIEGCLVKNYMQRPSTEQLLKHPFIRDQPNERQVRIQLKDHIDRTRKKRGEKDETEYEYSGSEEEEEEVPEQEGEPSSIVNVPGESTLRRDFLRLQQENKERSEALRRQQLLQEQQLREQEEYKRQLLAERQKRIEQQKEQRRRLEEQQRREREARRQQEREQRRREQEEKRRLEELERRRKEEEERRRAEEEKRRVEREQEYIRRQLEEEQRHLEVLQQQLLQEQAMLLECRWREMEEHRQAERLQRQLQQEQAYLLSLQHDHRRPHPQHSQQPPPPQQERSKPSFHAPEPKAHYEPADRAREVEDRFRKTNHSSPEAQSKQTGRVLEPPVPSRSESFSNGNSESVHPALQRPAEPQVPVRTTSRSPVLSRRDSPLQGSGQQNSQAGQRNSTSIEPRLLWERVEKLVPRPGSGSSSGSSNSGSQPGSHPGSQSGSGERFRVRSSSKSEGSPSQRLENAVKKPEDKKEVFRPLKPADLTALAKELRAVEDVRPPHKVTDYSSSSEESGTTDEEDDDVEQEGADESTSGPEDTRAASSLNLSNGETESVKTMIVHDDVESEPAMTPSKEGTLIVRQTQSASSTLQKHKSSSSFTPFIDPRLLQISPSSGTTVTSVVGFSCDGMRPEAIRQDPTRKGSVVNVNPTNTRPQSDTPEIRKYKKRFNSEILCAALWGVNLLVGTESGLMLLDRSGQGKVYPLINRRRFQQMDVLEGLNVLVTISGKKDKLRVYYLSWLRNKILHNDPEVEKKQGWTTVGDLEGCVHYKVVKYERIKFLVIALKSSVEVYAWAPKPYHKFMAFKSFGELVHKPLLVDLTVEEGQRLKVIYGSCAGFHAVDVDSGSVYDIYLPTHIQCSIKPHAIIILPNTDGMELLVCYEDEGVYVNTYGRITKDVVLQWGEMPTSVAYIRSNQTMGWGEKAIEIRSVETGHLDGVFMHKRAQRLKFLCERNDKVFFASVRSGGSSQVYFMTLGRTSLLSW
Sequence of Ephrin type-A receptor 2 (Homo sapiens) (P29317 whole entry): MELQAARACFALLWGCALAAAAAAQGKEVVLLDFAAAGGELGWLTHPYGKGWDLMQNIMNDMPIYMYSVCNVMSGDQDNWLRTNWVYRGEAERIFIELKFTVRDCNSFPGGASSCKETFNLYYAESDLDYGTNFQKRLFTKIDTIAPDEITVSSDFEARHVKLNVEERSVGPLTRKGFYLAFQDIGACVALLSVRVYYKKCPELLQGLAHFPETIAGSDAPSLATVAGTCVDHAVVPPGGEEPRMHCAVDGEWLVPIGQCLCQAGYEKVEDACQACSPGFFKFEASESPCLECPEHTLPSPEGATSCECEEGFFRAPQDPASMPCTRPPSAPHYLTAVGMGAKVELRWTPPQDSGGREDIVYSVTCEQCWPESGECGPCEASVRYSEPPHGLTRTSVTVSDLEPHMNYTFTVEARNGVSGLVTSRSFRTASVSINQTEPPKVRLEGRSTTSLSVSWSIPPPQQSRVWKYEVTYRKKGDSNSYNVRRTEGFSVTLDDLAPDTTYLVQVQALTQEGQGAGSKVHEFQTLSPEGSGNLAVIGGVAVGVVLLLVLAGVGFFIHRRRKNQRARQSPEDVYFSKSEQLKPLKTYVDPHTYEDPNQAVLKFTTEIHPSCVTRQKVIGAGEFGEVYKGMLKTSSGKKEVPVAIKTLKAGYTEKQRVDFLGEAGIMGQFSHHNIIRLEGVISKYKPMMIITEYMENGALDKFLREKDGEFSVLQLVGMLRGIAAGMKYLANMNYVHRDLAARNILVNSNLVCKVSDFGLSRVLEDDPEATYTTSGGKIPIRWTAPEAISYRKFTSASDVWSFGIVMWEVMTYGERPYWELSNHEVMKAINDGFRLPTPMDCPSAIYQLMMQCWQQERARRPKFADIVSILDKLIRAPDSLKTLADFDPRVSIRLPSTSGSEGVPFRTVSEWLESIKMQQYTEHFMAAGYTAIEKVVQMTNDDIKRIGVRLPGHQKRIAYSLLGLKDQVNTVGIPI
Sequence of Mitogen-activated protein kinase 1 (Homo sapiens) (P28482 whole entry): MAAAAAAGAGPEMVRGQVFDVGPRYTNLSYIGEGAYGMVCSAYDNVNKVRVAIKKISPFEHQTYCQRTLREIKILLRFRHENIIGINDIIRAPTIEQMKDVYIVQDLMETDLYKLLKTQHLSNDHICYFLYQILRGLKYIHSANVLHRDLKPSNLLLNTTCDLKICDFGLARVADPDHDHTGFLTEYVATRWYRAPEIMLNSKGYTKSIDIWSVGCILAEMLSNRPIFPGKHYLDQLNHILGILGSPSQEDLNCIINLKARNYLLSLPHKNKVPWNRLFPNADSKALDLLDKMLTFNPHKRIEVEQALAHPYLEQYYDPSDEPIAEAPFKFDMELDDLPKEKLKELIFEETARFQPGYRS
Sequence of Myosin light chain kinase 2, skeletal/cardiac muscle (Homo sapiens) (Q9H1R3 whole entry): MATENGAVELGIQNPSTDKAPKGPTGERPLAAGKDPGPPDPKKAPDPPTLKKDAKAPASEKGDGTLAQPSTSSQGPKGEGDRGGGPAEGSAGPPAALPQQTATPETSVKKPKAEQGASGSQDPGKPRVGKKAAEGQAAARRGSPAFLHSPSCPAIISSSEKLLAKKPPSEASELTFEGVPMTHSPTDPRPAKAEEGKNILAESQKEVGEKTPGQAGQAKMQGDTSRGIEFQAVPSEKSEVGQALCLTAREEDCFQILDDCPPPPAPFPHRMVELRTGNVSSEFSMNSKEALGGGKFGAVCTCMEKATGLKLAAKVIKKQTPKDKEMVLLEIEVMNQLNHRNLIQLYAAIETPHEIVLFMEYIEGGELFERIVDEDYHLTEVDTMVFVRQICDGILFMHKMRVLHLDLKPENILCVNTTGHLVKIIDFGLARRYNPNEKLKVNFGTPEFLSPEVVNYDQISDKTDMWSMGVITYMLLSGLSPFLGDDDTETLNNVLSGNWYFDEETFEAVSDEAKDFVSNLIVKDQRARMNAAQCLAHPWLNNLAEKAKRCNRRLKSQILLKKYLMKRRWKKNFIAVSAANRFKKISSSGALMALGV

Row | Structure (SMILES) | inhibition [1] [%] | IC50 [2] [µM] | inhibition [3] [%] | inhibition [4] [%] | inhibition [5] [%] | IC50 [6] [µM] | inhibition [7] [%] | inhibition [8] [%] | inhibition [9] [%] | inhibition [10] [%] | inhibition [11] [%] | inhibition [12] [%] | Ki [13] [µM] | pKi [13] | inhibition [14] [%]
1 | CNC(=O)c1ccc(Nc2ncc(C(F)(F)F)c(NCc3nccnc3N(C)S(C)(=O)=O)n2)cc1 [DEFACTINIB] | 60 | > 1 | 10.8 | 35 | 87 | 0.135 | 4 | 28 | 8 | 8 | 28 | 18 | – | – | –
2 | CN(c1ccnc(CNc2nc(Nc3ccc4c(c3)CC(=O)N4)ncc2C(F)(F)F)n1)S(C)(=O)=O [PF-00911705] | – | – | – | – | – | – | – | – | – | – | – | – | 1.48 | 5.83 | 0.19
